Assay results published in patent US6011019A, “Vasoactive effects and free radical generation by β-amyloid peptides” (University of South Florida, priority 1996, dated 2000).

Assays:
aortic rings = experiment: β-amyloid augmentation of phenylephrine (PE) induced contraction of aortic rings; design: species or system rat; settings: for PE induced contraction, +β-Amyloid P1 (±SEM): after 10^-6 M β-amyloid, maximum contraction without β-amyloid = 100%; for PE induced contraction, +β-Amyloid P2 (±SEM): repeated contraction after washing, no further β-amyloid
Experimental: (§1) The blood vessel preparations were mounted on stainless steel hooks attached to a force-displacement transducer and equilibrated under the optimum tension of 1.3 g for a period of sixty minutes in a tissue bath (10 ml) containing oxygenated (5% CO2 in O2) Kreb's buffer at 37° C. The buffer was changed every fifteen minutes. After equilibration for sixty minutes the viability of the blood vessel with intact endothelium was established by constricting the blood vessel using phenylephrine ([…]). This dose of phenylephrine elicited 80% of the maximum response. […] The vessel preparations were washed for fifteen minutes before various manipulations as described below.
The procedure was then repeated following incubation of the tissue with 10^-6 M β-amyloid for fifteen minutes (P1). The tissue was then rinsed and contractions repeated twice following fifteen minute incubation (P2 & P3) without further addition of β-amyloid. Arrows are shown for points of addition for P3.
Following a fifteen minute incubation, the preparations were contracted with 10^-7 M phenylephrine (PE) as described earlier. Control contractions with PE alone were carried out in presence of the various test compounds. Values represent the mean±SEM of four or more experiments. The heat-inactivated SOD was prepared by placing it in boiling water for thirty minutes followed by cooling prior to use. The hydrogen peroxide-inactivated SOD was prepared by exposing SOD to 10 mM H2 O2 for thirty minutes at pH 8.5 and subsequent separation using Microcon filtration system. The amyloid induced PE contraction was blocked by active SOD. Neither albumin or inactivated SOD had any effect on the amyloid activity.
The effect of preincubation of blood vessel with 10^-6 M β-amyloidon contraction induced by phenylephrine (2, 4, 8, & 16×10^-8 M is shown in Table 1). The maximum contraction in the absence of β-amyloid is taken as 100% and the values obtained following exposure to β-amyloid are expressed as percent of control value. After washing out phenylephrine and acetylcholine of the control contraction, β-amyloid augmented the phenylephrine induced contractions (P1). This effect was blocked by SOD. Washing out the phenylephrine and acetylcholine of the post peptide contraction and repeating the contractions caused further enhancement (P2). Values represent the mean±SEM of nine or more experiments.
The tissue was then incubated for fifteen minutes with β-amyloid (5×10^-7 M) with or without the drug, followed by contractions with PE. The concentrations compounds used were: L-NMMA, an inhibitor of NO synthase (10^-4 M); indomethacin, an inhibitor of the cyclooxygenase pathway (10^-5 M); SQ 29548, a thromboxane A2 receptor antagonist (10^-5 M); and catalase (1000 units/ml). Values are represented as percentage of the maximal contraction obtained with β-amyloid and PE alone and standardized to remove the intrinsic effects (if any) of each drug on PE contraction alone. The results represent the mean±SEM of five or more experiments.

[1] = system: endothelial cells in aortic rings; experiment: Electron microscopy of endothelial cell layer in aortic rings; design: species or system rat
Experimental: As shown in FIGS. 14A-F, […], or in presence of β-amyloid (10^-6 M), or SOD (150 units/ml) and β-amyloid.The tissue samples were kept in glutaraldehyde solution at 4° C. until processed and then rinsed with cacodylate buffer. The tissues were postfixed with 1% buffered osmium tetroxide, dehydrated with graded ethanol solutions, and embedded in a mixture of eponaraldite. Ultrathin sections were stained with uranyl acetate and lead citrate and viewed on model 7000 Hitachi transmission electron microscope. The inset bar indicates one micron. The experiment was repeated three or more times with blood vessels from different animals.

blood vessel (rat aorta) [2] = experiment: Vascular response of blood vessel rings in tissue bath (basal tension, β-amyloid induced vasoactivity)
Experimental: Freshly excised rat and porcine blood vessels were placed in Kreb's bicarbonate buffer equilibrated with 5% CO2 in O2. The buffer composition consisted of 118.2 mM NaCl, 4.7 mM KCl, 1.2 mM MgSO4, 2.5 mM CaCl2, 1.2 mM NaH2 PO4, 23 mM NaHCO3 and 11.2 mM glucose. After cleaning the vessels free of fat and other adhering tissues, the vessels were cut into ring segments of approximately 3 mm in length. Care was taken not to damage the intimal surface.
The endothelium was removed from some preparations by rubbing the inside of the lumen with a metal spatula for six to ten seconds and subsequent rinsing with buffer. The removal of endothelium was confirmed by testing for relaxation to acetylcholine [Furchgott and Zawadzki, 1980].
as §1
Referring to FIG. 10, the arrow indicates the addition of 10^-6 M β-amyloid. The control tissue received no β-amyloid. SOD (150 units/ml) was added thirty seconds prior to the addition of β-amyloid. The maximum contraction induced by β-amyloid was 1.14±0.13 (g) and in presence of SOD the contraction was reduced to 0.04±0.02 (g). Values represent the mean±SEM of five separate experiments.

rat coronary arteries = experiment: Rat coronary artery constriction and relaxation (U46619, acetylcholine); settings: single dose 10^-6 M; preconstricted with 10^-7 M U46619
Experimental: The effects of β-amyloid peptide were examined on samples of rat coronary arteries prepared as described above. Referring specifically to FIG. 1, rat coronary arteries were treated with β-amyloid peptide (Aβ40) causing constriction of the coronary arteries.
FIG. 3 illustrates the effect of various amyloid fragments on the constriction of rat coronary arteries. Following control constriction with 10^-7 M U46619, the tissue samples were rinsed, equilibrated with buffer, and treated with 10^-6 M Aβ peptides for fifteen minutes. Following treatment with the Aβ peptides, the blood vessels were rinsed and again exposed to U46619. The values are expressed as percent of control constriction produced by U46619 alone.
The effect of pretreatment of coronary arteries with a single dose (10^-6 M) of A40 on acetylcholine induced relaxation is shown in FIG. 20. The blood vessel was preconstricted with 10^-7 M U46619 and relaxed with increasing doses of acetylcholine (10^-9 M to 10^-5 M).

blood vessel (rat aorta) [3] = experiment: Acetylcholine induced relaxation of preconstricted rat aorta after β-amyloid; settings: for acetylcholine induced relaxation after β-amyloid pretreatment: 10^-6 M β-amyloid fifteen minutes, preconstricted with 10^-7 M phenylephrine
Experimental: as §1
(1=10^-9 M, 2=10^-8 M, 3=5×10^-8 M, 4=10^-7 M, 5=5×10^-7 M, 6=10^-6 M, 7=10^-5 M, 8=5×10^-5 M, the curve denoted by (C) is the control curve and +Aβ indicates the curve for β-amyloid treated aorta.)
FIG. 11 illustrates the relaxation by acetylcholine under control conditions and following fifteen minute incubation with 10^-6 M β-amyloid protein. The acetylcholine relaxation curve is shifted to the right but maintains its sigmoidal form indicating attenuation of acetylcholine induced relaxation. Values represent the mean±SEM of 5 or more experiments. […] At higher doses of acetylcholine greater percentage changes in relaxation occur preserving the sigmoidal response.

## β-amyloid
Aortic rings; PE 2×10^-8 M
  PE induced contraction, +β-Amyloid P1 (±SEM): 13.3(5.9) percent of control value
  PE induced contraction, +β-Amyloid P2 (±SEM): 20(5.0) percent of control value
Aortic rings; PE 4×10^-8 M
  PE induced contraction, +β-Amyloid P1 (±SEM): 75(6.0) percent of control value
  PE induced contraction, +β-Amyloid P2 (±SEM): 99(15.0) percent of control value
Aortic rings; PE 8×10^-8 M
  PE induced contraction, +β-Amyloid P1 (±SEM): 105(15.0) percent of control value
  PE induced contraction, +β-Amyloid P2 (±SEM): 133(20.0) percent of control value
Aortic rings; PE 16×10^-8 M
  PE induced contraction, +β-Amyloid P1 (±SEM): 128(11.7) percent of control value
  PE induced contraction, +β-Amyloid P2 (±SEM): 141(17.6) percent of control value
Aortic rings; subsequent contraction with PE
  PE contraction after washing the β-amyloid treated tissue: showed further increase
[1]; incubation periods of fifteen minutes
  β-amyloid concentration required to induce the morphological changes: > 5×10^-7 M
[1]; β-amyloid 10^-6 M, 37° C., thirty minutes
  endothelial cell morphology after incubation: induced significant damage to the endothelial cells
Blood vessel (rat aorta) [2]; 10^-6 M β-amyloid, mean±SEM of five experiments
  maximum contraction induced by β-amyloid: 1.14 ± 0.13 g
Blood vessel (rat aorta) [2]; after β-amyloid addition
  duration of contraction/relaxation activity: fifteen to twenty minutes
  initial detectable change: minor relaxation: < 0.1 g
  onset of vasoactivity: within thirty seconds
Blood vessel (rat aorta) [2]; increasing concentration of β-amyloid, basal tension, intact endothelium
  constriction of the blood vessel: constricted the blood vessel in a concentration-dependent manner
Blood vessel (rat aorta) [2]; vessels with and without endothelium
  endothelium dependence of the constricting effect: only occurred in the presence of endothelium
Rat coronary arteries
  acetylcholine induced vasodilation after pretreatment: significantly reduced the vasodilation induced by acetylcholine
Blood vessel (rat aorta) [3]
  acetylcholine induced relaxation after β-amyloid pretreatment: significantly reduced relaxation
Blood vessel (rat aorta) [3]; listed as β-amyloid protein
  acetylcholine induced relaxation after β-amyloid pretreatment: significantly lowered
Blood vessel (rat aorta) [3]; tissue washed following β-amyloid exposure
  restoration of acetylcholine induced relaxation by washing after β-amyloid: did not restore the acetylcholine-induced relaxation to control levels
